Assay results from PubChem BioAssay (NCI).
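Five compound concentrations were applied to cells in 96-well plates for 48 hours; endpoints were derived by simple linear interpolation of the resulting dose-response curve. Abbreviation: GI50, concentration required for 50% inhibition of growth. TGI: concentration producing complete growth inhibition.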

Tests used:
Assay in all cases: NCI tumour cell line growth inhibition, 48 h
786-0 renal = tested on: 786-0 renal
A498 renal = tested on: A498 renal
A549 NSCLC = tested on: A549 NSCLC
ACHN renal = tested on: ACHN renal
BT-549 breast = tested on: BT-549 breast
CAKI-1 renal = tested on: CAKI-1 renal
CCRF-CEM leukemia = tested on: CCRF-CEM leukemia
COLO 205 colon = tested on: COLO 205 colon
DU-145 prostate = tested on: DU-145 prostate
EKVX NSCLC = tested on: EKVX NSCLC
HCC-2998 colon = tested on: HCC-2998 colon
HCT-116 colon = tested on: HCT-116 colon
HCT-15 colon = tested on: HCT-15 colon
HL-60(TB) leukemia = tested on: HL-60(TB) leukemia
HOP-62 NSCLC = tested on: HOP-62 NSCLC
HOP-92 NSCLC = tested on: HOP-92 NSCLC
HS 578T breast = tested on: HS 578T breast
HT29 colon = tested on: HT29 colon
IGROV1 ovarian = tested on: IGROV1 ovarian
K-562 leukemia = tested on: K-562 leukemia
KM12 colon = tested on: KM12 colon
LOX IMVI melanoma = tested on: LOX IMVI melanoma
M14 melanoma = tested on: M14 melanoma
MALME-3M melanoma = tested on: MALME-3M melanoma
MCF7 breast = tested on: MCF7 breast
MDA-MB-231 breast = tested on: MDA-MB-231 breast
MDA-MB-435 = tested on: MDA-MB-435
MOLT-4 leukemia = tested on: MOLT-4 leukemia
NCI-H226 lung = tested on: NCI-H226 lung
NCI-H23 lung = tested on: NCI-H23 lung
NCI-H460 lung = tested on: NCI-H460 lung
NCI-H522 lung = tested on: NCI-H522 lung
NCI/ADR-RES ovarian = tested on: NCI/ADR-RES ovarian
OVCAR-3 ovarian = tested on: OVCAR-3 ovarian
OVCAR-4 ovarian = tested on: OVCAR-4 ovarian
OVCAR-5 ovarian = tested on: OVCAR-5 ovarian
OVCAR-8 ovarian = tested on: OVCAR-8 ovarian
PC-3 prostate = tested on: PC-3 prostate
RPMI-8226 leukemia = tested on: RPMI-8226 leukemia
RXF 393 renal = tested on: RXF 393 renal
SF-268 CNS = tested on: SF-268 CNS
SF-295 CNS = tested on: SF-295 CNS
SF-539 CNS = tested on: SF-539 CNS
SK-MEL-2 melanoma = tested on: SK-MEL-2 melanoma
SK-MEL-28 melanoma = tested on: SK-MEL-28 melanoma
SK-MEL-5 melanoma = tested on: SK-MEL-5 melanoma
SK-OV-3 ovarian = tested on: SK-OV-3 ovarian
SN12C renal = tested on: SN12C renal
SNB-19 CNS = tested on: SNB-19 CNS
SNB-75 CNS = tested on: SNB-75 CNS
SR leukemia = tested on: SR leukemia
SW-620 colon = tested on: SW-620 colon
T-47D breast = tested on: T-47D breast
TK-10 renal = tested on: TK-10 renal
U251 CNS = tested on: U251 CNS
UACC-257 melanoma = tested on: UACC-257 melanoma
UACC-62 melanoma = tested on: UACC-62 melanoma
UO-31 renal = tested on: UO-31 renal

Cc1ccc(NC(=O)Nc2c(Cl)cccc2Cl)cn1
GI50 (786-0 renal): 61.2 µM
TGI (786-0 renal): > 100 µM
GI50 (A498 renal): 12.1 µM
TGI (A498 renal): > 100 µM
GI50 (A549 NSCLC): 8.51 µM
TGI (A549 NSCLC): 43 µM
GI50 (ACHN renal): 51.5 µM
TGI (ACHN renal): > 100 µM
GI50 (BT-549 breast): 59.1 µM
TGI (BT-549 breast): > 100 µM
GI50 (CAKI-1 renal): 5.78 µM
TGI (CAKI-1 renal): > 100 µM
GI50 (CCRF-CEM leukemia): 5.79 µM
TGI (CCRF-CEM leukemia): > 100 µM
GI50 (COLO 205 colon): 3.61 µM
TGI (COLO 205 colon): 24.3 µM
GI50 (DU-145 prostate): 16.2 µM
TGI (DU-145 prostate): 76.6 µM
GI50 (EKVX NSCLC): 3.04 µM
TGI (EKVX NSCLC): > 100 µM
GI50 (HCC-2998 colon): 28 µM
TGI (HCC-2998 colon): > 100 µM
GI50 (HCT-116 colon): 11.1 µM
TGI (HCT-116 colon): > 100 µM
GI50 (HCT-15 colon): 5.61 µM
TGI (HCT-15 colon): > 100 µM
GI50 (HL-60(TB) leukemia): 4.23 µM
TGI (HL-60(TB) leukemia): 29.7 µM
GI50 (HOP-62 NSCLC): 8.33 µM
TGI (HOP-62 NSCLC): > 100 µM
GI50 (HOP-92 NSCLC): 16.8 µM
TGI (HOP-92 NSCLC): > 100 µM
GI50 (HS 578T breast): 1.94 µM
TGI (HS 578T breast): 6.89 µM
GI50 (HT29 colon): 3.93 µM
TGI (HT29 colon): 15.6 µM
GI50 (IGROV1 ovarian): 8.14 µM
TGI (IGROV1 ovarian): > 100 µM
GI50 (K-562 leukemia): 4.03 µM
TGI (K-562 leukemia): > 100 µM
GI50 (KM12 colon): 4.37 µM
TGI (KM12 colon): > 100 µM
GI50 (LOX IMVI melanoma): 21.3 µM
TGI (LOX IMVI melanoma): > 100 µM
GI50 (M14 melanoma): 12 µM
TGI (M14 melanoma): > 100 µM
GI50 (MALME-3M melanoma): 8.57 µM
TGI (MALME-3M melanoma): > 100 µM
GI50 (MCF7 breast): 7.29 µM
TGI (MCF7 breast): > 100 µM
GI50 (MDA-MB-231 breast): 7.66 µM
TGI (MDA-MB-231 breast): > 100 µM
GI50 (MDA-MB-435): 1.96 µM
TGI (MDA-MB-435): 4.69 µM
GI50 (MOLT-4 leukemia): 6.38 µM
TGI (MOLT-4 leukemia): 32.4 µM
GI50 (NCI-H226 lung): > 100 µM
TGI (NCI-H226 lung): > 100 µM
GI50 (NCI-H23 lung): 26.1 µM
TGI (NCI-H23 lung): > 100 µM
GI50 (NCI-H460 lung): 4.91 µM
TGI (NCI-H460 lung): 36.1 µM
GI50 (NCI-H522 lung): 12.5 µM
TGI (NCI-H522 lung): 44 µM
GI50 (NCI/ADR-RES ovarian): 4.46 µM
TGI (NCI/ADR-RES ovarian): 70.3 µM
GI50 (OVCAR-3 ovarian): 4.5 µM
TGI (OVCAR-3 ovarian): 22.7 µM
GI50 (OVCAR-4 ovarian): 65 µM
TGI (OVCAR-4 ovarian): > 100 µM
GI50 (OVCAR-5 ovarian): 72.9 µM
TGI (OVCAR-5 ovarian): > 100 µM
GI50 (OVCAR-8 ovarian): 19.4 µM
TGI (OVCAR-8 ovarian): > 100 µM
GI50 (PC-3 prostate): 25.2 µM
TGI (PC-3 prostate): > 100 µM
GI50 (RPMI-8226 leukemia): 9.16 µM
TGI (RPMI-8226 leukemia): > 100 µM
GI50 (RXF 393 renal): 5.85 µM
TGI (RXF 393 renal): 30.9 µM
GI50 (SF-268 CNS): 14.5 µM
TGI (SF-268 CNS): > 100 µM
GI50 (SF-295 CNS): 5.49 µM
TGI (SF-295 CNS): > 100 µM
GI50 (SF-539 CNS): 5.24 µM
TGI (SF-539 CNS): > 100 µM
GI50 (SK-MEL-2 melanoma): 5.87 µM
TGI (SK-MEL-2 melanoma): 27.5 µM
GI50 (SK-MEL-28 melanoma): 58.2 µM
TGI (SK-MEL-28 melanoma): > 100 µM
GI50 (SK-MEL-5 melanoma): 5.06 µM
TGI (SK-MEL-5 melanoma): > 100 µM
GI50 (SK-OV-3 ovarian): 5.97 µM
TGI (SK-OV-3 ovarian): > 100 µM
GI50 (SN12C renal): 55.4 µM
TGI (SN12C renal): > 100 µM
GI50 (SNB-19 CNS): 26.1 µM
TGI (SNB-19 CNS): > 100 µM
GI50 (SNB-75 CNS): 5.88 µM
TGI (SNB-75 CNS): > 100 µM
GI50 (SR leukemia): 3.89 µM
TGI (SR leukemia): 22.7 µM
GI50 (SW-620 colon): 4.24 µM
TGI (SW-620 colon): > 100 µM
GI50 (T-47D breast): 13.9 µM
TGI (T-47D breast): > 100 µM
GI50 (TK-10 renal): 18.1 µM
TGI (TK-10 renal): 41.6 µM
GI50 (U251 CNS): 5.07 µM
TGI (U251 CNS): > 100 µM
GI50 (UACC-257 melanoma): 71.4 µM
TGI (UACC-257 melanoma): > 100 µM
GI50 (UACC-62 melanoma): 5.76 µM
TGI (UACC-62 melanoma): > 100 µM
GI50 (UO-31 renal): 47 µM
TGI (UO-31 renal): > 100 µM
